From US20030083271A1, “Topoisomerase I selective cytotoxic sugar derivatives of indolopyrrolocarbazoles” (priority 2001, published 2003)

How the values were obtained:
[1] = biological target: T1, purified human topoisomerase I (Homo sapiens, UniProt P11387); experiment: Topoisomerase I-mediated single strand DNA break induction (in vitro); assay type: biochemical; details: median effect concentration for inducing single-strand breaks in the DNA substrate; read-out: Topo I EC50
T1 construct: purchased Topogen
T1 sequence (P11387 1-765): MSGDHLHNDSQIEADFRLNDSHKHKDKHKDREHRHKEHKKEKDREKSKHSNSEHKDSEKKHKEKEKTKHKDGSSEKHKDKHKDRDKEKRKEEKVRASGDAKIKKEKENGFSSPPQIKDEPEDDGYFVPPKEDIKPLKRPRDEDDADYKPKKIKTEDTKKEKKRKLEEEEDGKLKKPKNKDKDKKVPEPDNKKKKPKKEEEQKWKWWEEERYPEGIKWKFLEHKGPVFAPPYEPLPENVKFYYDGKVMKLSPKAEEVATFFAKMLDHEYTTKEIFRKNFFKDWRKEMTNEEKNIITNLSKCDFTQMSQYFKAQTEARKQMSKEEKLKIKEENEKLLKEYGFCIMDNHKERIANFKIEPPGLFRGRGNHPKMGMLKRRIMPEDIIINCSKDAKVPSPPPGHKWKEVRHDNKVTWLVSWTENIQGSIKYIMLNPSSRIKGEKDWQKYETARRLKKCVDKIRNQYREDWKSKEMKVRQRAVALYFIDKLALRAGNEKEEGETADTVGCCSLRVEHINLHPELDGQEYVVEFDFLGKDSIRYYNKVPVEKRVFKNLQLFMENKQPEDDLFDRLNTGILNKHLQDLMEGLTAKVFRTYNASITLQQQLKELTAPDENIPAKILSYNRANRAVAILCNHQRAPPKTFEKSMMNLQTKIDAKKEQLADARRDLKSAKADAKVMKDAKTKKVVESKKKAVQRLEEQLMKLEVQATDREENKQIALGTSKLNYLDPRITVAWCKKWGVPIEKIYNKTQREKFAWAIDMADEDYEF
Description: Topoisomerase I activity was measured as described below. The procedure for assaying compound-induced, topoisomerase I-mediated single strand breaks in DNA was essentially that described by Hsiang, et al., (J. Biol. Chem. 1985, 260, 14873-14878). Samples dissolved in 100% DMSO as either […] or 10 mg/ml solutions, unless otherwise stated, were diluted in Tris-EDTA buffer. Marine bacteriophage PM2 DNA (Boehringer Mannheim) was also diluted in Tris-EDTA buffer to a concentration of 0.02 μg/μl. Different dilutions of the compound being evaluated were mixed with diluted DNA and this mixture was added to […] (one unit of enzyme activity is defined as the amount capable of relaxing 100 ng of supercoiled DNA in approximately 30 minutes at 37° C.) aliquots of purified human topoisomerase I (Topogen) in 2X reaction buffer to start the reaction. The compound-DNA-enzyme mixture was incubated for 30 minutes at 37° C. before stopping the reaction with warm stop buffer containing sodium dodecyl sulfate and proteinase K (Sigma). These mixtures were allowed to incubate at 37° C. for another 10 minutes, at which time the mixtures were removed from the waterbath and extracted with a 24:1 mixture of chloroform/isoamyl alcohol. Following centrifugation, aliquots of the aqueous phases were placed in wells of a 0.9% agarose (SeaKem) gel in Tris-borate buffer containing 0.5 μg/ml of ethidium bromide and subjected to electrophoresis for 15 hours to separate the different topological isomers and nicked and broken DNAs. After destaining the gel in water, the ethidium bromide stained DNA reaction products were visualized by exposing the gel to UV irradiation. Negatives of the photographs of the irradiated gels were scanned with a densitometer and areas under the peaks were calculated in order to obtain percent single strand DNA break formation for each sample. A median effective concentration (EC50) was obtained for each compound by interpolation between points of the resulting dose-effect curve which defines the potency of the compound for its effect in inducing topoisomerase I-mediated single strand breaks in DNA. The topoisomerase I activities for certain compounds of the present invention are shown below in Table I.

[2] = test system: P388 murine leukemia cells; experiment: In vitro cell-based cytotoxicity, parental P388 cells; details: Mus musculus, 72 h, median cytotoxic concentration, 3 days continuous exposure
Description: The proliferation inhibition activity against the murine P388 cell line was measured as follows. Evaluation of a soluble tetrazolium/formazan assay for cell growth and drug sensitivity in culture, using human and other tumor cell lines, was done according to the procedure described in Cancer Res. 1988, 48, 4827-4833. Cells were plated at 4000 cells/well in 96 well microtiter plates and 24 h later drugs were added and serially diluted. The cells were incubated at 37° C. for 72 h, at which time a tetrazolium dye, XTT, containing phenazine methosulfate was added. A dehydrogenase enzyme in live cells reduced the XTT to a form that absorbs light at 450 nm, which could be quantitated spectrophotometrically. The greater the absorbance the greater the number of live cells. The results are expressed as an IC50, which is the drug concentration required to inhibit cell proliferation (i.e., absorbance at 450 nm) to 50% of that of untreated control cells.
(§1) Similarly, P338 murine leukemia cells were maintained in RPMI 1640 supplemented with 20% fetal bovine serum and 10 μM 2-mercaptoethanol. A camptothecin resistant subline, P388/CPT45, was selected for resistance to camptothecin and is over 1000-fold resistant to this compound (Woessner, et al. Oncol. Res. 1992, 4, 481-488).
(§2) In vitro cytotoxicity was assessed in tissue culture cells by MTS (3-(4,5-dimethylthiazol-2-yl)-5-(3-carboxymethoxyphenyl)-2-(4-sulphenyl)-2H-tetrazolium, inner salt) assay (Riss and Moravec, Mol. Biol. Cell 1992, 3 (Suppl.), 184a). Cells were plated at 8,000 cell/well in 96 well microtiter plates and 24 hours later serial dilutions of the test compounds were made and added to the cells. The cells were incubated at 37° C. for 72 hours, at which time the tetrazolium dye, MTS at 333 μg/ml (final concentration), in combination with the electron coupling agent phenazine methosulfate at 25 μM (final concentration) was added. A dehydrogenase enzyme in live cells reduces the MTS to a form that absorbs light at 492 nm which can be quantitated spectrophotometrically. The greater the absorbance the greater the number of live cells. The results are expressed as an IC50, which is the drug concentration required to inhibit cell proliferation (i.e., absorbance at 492 nm) to 50% of that of untreated control cells.
The cytotoxic activity for certain compounds of the present invention, in both parental P388 and the camptothecin-resistant P388/CPT45 cell lines are shown below in Table I.

P388/CPT45 cells = experiment: Cytotoxicity in camptothecin-resistant P388/CPT45 cells relative to parental P388 (selectivity index R/S); assay type: cell-based, murine; details: IC50 P388/CPT45 cells divided by IC50 parental P388 cells
Source text: The present invention includes fluoro sugar and other sugar derivatives of indolopyrrolocarbazoles of formula (I), as defined above. […] Most importantly, the instant invention describes topo I active compounds, related to compounds disclosed in WO 98/07433 and co-pending U.S. application, Ser. No. 08/914566 (both herein incorporated by reference), which display a surprising and unexpected selectivity index when evaluated for cytotoxicity in certain cell lines which express normal levels of topo I required for cell proliferation, compared with cell lines that are deficient in or underexpress topo I. Said “selectivity index” (R/S) was generated by dividing the cytotoxic IC50 of a particular compound against a camptothecin-resistant murine leukemia cell line, P388/CPT45, by the IC50 generated when using the parent P388 cell line. […] A level of selectivity was judged to be advantageous and beneficial in, for example, modulating potential undesirable side effects and/or toxicity. The compounds of the present invention were selected from compounds generically disclosed in WO 98/07433 and co-pending U.S. patent application, Ser. No. 08/914566, on the basis of an unexpected and unpredictable selectivity index (see Table I and II). […] Simple changes in the substitution of the sugar portion or the indolopyrrolocarbazole portion of the present invention will change the selectivity. This change in selectivity is not predictable by one skilled in the art.
as §1, §2
The selectivity index (R/S) is defined as the ratio obtained by dividing the IC50 value obtained using P388/CPT45 cells by that obtained using parental P388 cells. The R/S ratios used to determine the relative topo I selectivity of selected compounds of this invention are shown below in Table I.

EC50 [1] [nM]	Structure (SMILES)	IC50 [2] [nM]	Selectivity Index R/S (P388/CPT45 cells)
20	[N-]=[N+]=N[C@H]1[C@H](O)[C@@H](O)[C@H](n2c3ccc(F)cc3c3c4c(c5c6cc(F)ccc6[nH]c5c32)C(=O)NC4=O)O[C@@H]1CO [Example 10]	68	121.3
20	NC[C@H]1O[C@@H](n2c3cc(F)c(F)cc3c3c4c(c5c6cc(F)c(F)cc6sc5c32)C(=O)NC4=O)[C@H](O)[C@@H](O)[C@@H]1F [Example 12, 12-[6-Amino-4,6-dideoxy-4-fluoro-β-D-glucopyranosyl]-2,3,9,10-tetrafluoro-5H,13H-benzo[b]thienyl[2,3-a]pyrrolo[3,4-c]carbazole-5,7(6H)-dione]	2	131.5
160	O=C1NC(=O)c2c1c1c3cc(F)ccc3sc1c1c2c2cc(F)ccc2n1[C@@H]1O[C@H](CN2CCOCC2)[C@@H](O)[C@H](O)[C@H]1O [Example 13]	100	140.0
30	O=C1NC(=O)c2c1c1c3cc(F)c(F)cc3[nH]c1c1c2c2cc(F)c(F)cc2n1[C@@H]1O[C@H](CO)C(F)(F)[C@H](O)[C@H]1O [Example 14]	6	140.3
30	O=C1NC(=O)c2c1c1c3cc(F)ccc3[nH]c1c1c2c2cc(F)ccc2n1[C@@H]1O[C@H](CF)C[C@H](O)[C@H]1O [Example 15]	5	>149.7
450	O=C1NC(=O)c2c1c1c3cc(F)c(F)cc3[nH]c1c1c2c2cc(F)c(F)cc2n1[C@@H]1O[C@H](CF)C[C@@H](F)[C@H]1O [Example 17, 12-[3,6-Difluoro-3,4,6-trideoxy-β-D-allopyranosyl]-2,3,9,10-tetrafluoro-12,13-dihydro-5H-indolo[2,3-a]pyrrolo[3,4-c]carbazole-5,7(6H)-dione]	41	179.2
60	[N-]=[N+]=N[C@H]1[C@@H](O)[C@@H](O)[C@H](n2c3ccc(F)cc3c3c4c(c5c6cc(F)ccc6[nH]c5c32)C(=O)NC4=O)O[C@@H]1CF [Example 19]	< 3	>195.2
20	O=C1NC(=O)c2c1c1c3cc(F)ccc3[nH]c1c1c2c2cc(F)ccc2n1[C@@H]1O[C@H](CO)C[C@@H](O)[C@H]1O [Example 20, 12-[4-Deoxy-β-D-allopyranosyl)-3,9-difluoro-12,13-dihydro-5H-indolo [2,3-a]pyrrolo[3,4-c]carbazole-5,7(6H)-dione]	2	201.2
70	O=C1NC(=O)c2c1c1c3cc(F)c(F)cc3[nH]c1c1c2c2cc(F)c(F)cc2n1[C@@H]1O[C@H](CO)C[C@H](O)[C@H]1O [Example 21]	5	207.7
80	O=C1NC(=O)c2c1c1c3cc(F)c(F)cc3[nH]c1c1c2c2cc(F)c(F)cc2n1[C@@H]1O[C@H](CF)[C@@H](F)[C@H](O)[C@H]1O [Example 22, 12-[4,6-Difluoro-4,6-dideoxy-β-D-glucopyranosyl]-2,3,9,10-tetrafluoro-12,13-dihydro-5H-indolo[2,3-a]pyrrolo[3,4-c]carbazole-5,7(6H)-dione]	14	287.7
10	O=C1NC(=O)c2c1c1c3cc(F)ccc3[nH]c1c1c2c2cc(F)ccc2n1[C@@H]1O[C@H](CO)C(F)(F)[C@H](O)[C@H]1O [Example 25, 12-[4,4-Difluoro-4-deoxy-β-D-glucopyranosyl]-3,9-difluoro-12,13-dihydro-5H-indolo[2,3-a]pyrrolo[3,4-c]carbazole-5,7(6H)-dione]	3	381.5
50	O=C1NC(=O)c2c1c1c3cc(F)c(F)cc3[nH]c1c1c2c2cc(F)c(F)cc2n1[C@@H]1O[C@H](CO)[C@@H](F)[C@H](O)[C@H]1O [Example 28, 12-[4-Deoxy-4-fluoro-β-D-glucopyranosyl]-2,3,9,10-tetrafluoro-12,13-dihydro-5H-indolo[2,3-a]pyrrolo[3,4-c]carbazole-5,7(6H)-dione]	4	499.2
80	O=C1NC(=O)c2c1c1c3cc(F)ccc3[nH]c1c1c2c2cc(F)ccc2n1[C@@H]1O[C@H](CO)C[C@H](O)[C@H]1O [Example 31, 12-[4-Deoxy-β-D-glucopyranosyl]-3,9-difluoro-12,13-dihydro-5H-indolo[2,3-a]pyrrolo[3,4-c]carbazole-5,7(6H)-dione]	4	720.7
240	O=C1NC(=O)c2c1c1c3cc(F)ccc3sc1c1c2c2cc(F)ccc2n1[C@@H]1O[C@H](CSc2nccc(O)n2)[C@@H](O)[C@H](O)[C@H]1O [Example 35]	> 7680	<1.0
